Test results as given in US11207331B2, “Agents, compositions and methods for enhancing neurological function” (University of Southern California, priority 2007, dated 2021).

Legend:
hippocampal neurons = test: Expression of cell proliferating markers Ki-67 and cdc2 in hippocampal neurons; type: cell-based, rat
Source text: Expression of cell cycle proteins have been successfully used to evaluate cellular proliferation. One such protein is the nuclear proliferation protein, Ki-67, which is expressed during the G1, S, G2, and M phases of the cell cycle, but is not expressed during the Go (resting) phase. Because Ki-67 antigen has a short half-life, it can be used as a marker of actively proliferating cells. Another cell cycle protein is cell division control protein 2 (cdc2) which is a cyclin dependent kinase (also called CDK1) which plays a crucial role in the G1/S and G2/M phase. If THP induces neuronal proliferation, cell proliferation markers should be elevated.
Hippocampal neurons were treated with THP at a concentration of 250 nM for 72 hours and immunostained with antibodies for the nuclear proliferation marker, ki-67 antigen, which appears yellow. […] The cell cycle protein cdc2 is also observed in a dose dependent fashion (see FIG. 4).
For this experiment, neurons were collected following 24 hrs of THP exposure. Forty μg protein of the total cell lysate was loaded and separated by 12% SDS-gel using antibody (Ahcom) specifically against cdc2- and analyzed using Un-Scan-It image software (Ilk Scientific Corp.).

[1] = THP concentration in plasma and cortex by GC/MS; type: in vivo, mouse
Protocol: Cortices from brain hemisection of mice treated with THP or vehicle were collected at time of sacrifice for measurement of THP by GC/MS. Plasma was also collected at time of sacrifice. Three-month-old male non-Tg and 3×TgAD mice were subcutaneously injected with THP (1, 10, and 20 mg/kg BW) or vehicle (0.1% ethanol in PBS, n=4 in each group). The mice were sacrificed 24 hours later. THP concentration in plasma and brain were measured by GC/MS. […] In the 3×TgAD mouse cortex, a 10 mg/kg dose of THP results in a cortical level of 20 ng/g protein 24 hrs post injection.

[2] = test system: Beta amyloid binding alcohol dehydrogenase (ABAD); test: ABAD expression (Western blot, antibody ERAB); type: in vivo, mouse
Protocol: Further studies were conducted using a dosing regime of once a week for six months administered subcutaneously. Three and six months old 3×Tg-AD and age-matched non-Tg mice were chosen for the experiments, since AD pathology (Aβ) starts development at 3-month and abundant accumulation at 6-months. Allopregnanolone was subcutaneously (s.c.) administrated with 10 mg/kg once per week for 6 months. For neurogenesis and neurosurvival study, BrdU, IdU and CIdU were intraperitoneal (i.p.) injected at the first 5 days, mid 5 days and 5 days before sacrifice during 6-month treatment. After 6 months of allopregnanolone treatment, mice, at 9- and 12-month old, were sacrificed.
Beta amyloid binding alcohol dehydrogenase (ABAD) was probed with antibody ERAB (1:500, Abcam). […] Immunofluorescent staining using goat polyclonal anti-ERAB (Santa Cruz) confirmed the results obtained by Western Blot analysis. The concentration of ABAD immunoactive cells is less in THP-treated brains than in the brains treated with the vehicle.

[3] = test system: three month old male 3×TgAD mouse hippocampus; test: Flow cytometry of BrdU labeled cells 24 hours after subcutaneous or transdermal THP; type: in vivo
Protocol: Flow cytometry assay detected total BrdU labeled cells 24 hours following THP administration via (A) subcutaneous and (B) transdermal routes. […] BrdU (100 mg/kg) was administered by intraperitoneal injection one hour after THP administration. Transdermal gel THP dose-response for 5, 10, and 50 mg/kg (FIG. 21B) was compared to 0 mg/kg control vehicle (negative control) and subcutaneous injection of 10 mg/kg (positive control) (FIG. 21A). […] Immunoblots of proliferating cell nuclear antigen (PCNA), an S-phase marker and cyclin dependent kinase 1 (CDK1/cdc2), an M-phase marker, are shown in FIGS. 21C and 21D, respectively. Hippocampus protein expression of PCNA and CDK1/cdc2 was normalized to β-tubulin loading control and compared relative to the vehicle control by immunoblot. […] The data were analyzed by one way ANOVA followed by a t test (two samples assuming equal variance) vs. vehicle. Data are presented as the mean±SEM, n=5, *=P<0.05, and **=P<0.01.

With CC(=O)[C@H]1CC[C@H]2[C@@H]3CC[C@H]4C[C@H](O)CC[C@]4(C)[C@H]3CC[C@]12C [THP, 3α-hydroxy-5α-pregnan-20-one] the “expression of nuclear proliferation marker Ki-67” value (hippocampal neurons; 250 nM, 72 hours, immunostaining) was “induces the expression of the nuclear proliferation marker Ki-67”, the “expression of cdc2” value (hippocampal neurons; 250 or 500 nM, 24 hrs, Western blot) was “increases expression of cell division control protein 2 (cdc2)” and the “dose dependence of THP in plasma and cortex” value ([1]; 1, 10 and 20 mg/kg BW s.c., 24 hours) was “linear dose dependent manner”. For the same molecule, the “cortical level of THP” value ([1]; 3×TgAD mouse cortex, 10 mg/kg s.c., 24 hrs post injection) was 20 ng/g protein, the “THP level in 3×TgAD relative to nontransgenic treated mice” value ([1]; plasma and cortex, 24 hours) was “consistently lower level of THP in both plasma and cortex” and the “decrease in ABAD level relative to vehicle” value ([2]; 9-month 3×Tg mice) was 30±4%. For the same molecule, the “decrease in ABAD level relative to vehicle” value ([2]; 12-month 3×Tg mice) was 20±7%, the “BrdU cell numbers vs vehicle” value ([3]; 10 mg/kg dose) was “significantly increases BrdU cell numbers” and the “optimal dose to significantly increase BrdU cell numbers” value ([3]; subcutaneous and transdermal routes) was 10 mg/kg.
